{"source": "patent EP3564214B1", "about": "“INDAZOLE DERIVATIVES AS MODULATORS OF THE CANNABINOID SYSTEM” (Universita' Degli Studi G. D'annunzio Chieti - Pescara, priority 2018, dated 2019)", "key": {"CB receptors": {"molecular_target": "T1, CB receptors (Rattus norvegicus, UniProt P20272)", "T1 construct": "Crude membrane fractions were prepared from the brain without cerebellum; from tissue; host or cells: Wistar rat brain without cerebellum, crude membrane fraction", "T1 sequence (P20272 whole entry)": "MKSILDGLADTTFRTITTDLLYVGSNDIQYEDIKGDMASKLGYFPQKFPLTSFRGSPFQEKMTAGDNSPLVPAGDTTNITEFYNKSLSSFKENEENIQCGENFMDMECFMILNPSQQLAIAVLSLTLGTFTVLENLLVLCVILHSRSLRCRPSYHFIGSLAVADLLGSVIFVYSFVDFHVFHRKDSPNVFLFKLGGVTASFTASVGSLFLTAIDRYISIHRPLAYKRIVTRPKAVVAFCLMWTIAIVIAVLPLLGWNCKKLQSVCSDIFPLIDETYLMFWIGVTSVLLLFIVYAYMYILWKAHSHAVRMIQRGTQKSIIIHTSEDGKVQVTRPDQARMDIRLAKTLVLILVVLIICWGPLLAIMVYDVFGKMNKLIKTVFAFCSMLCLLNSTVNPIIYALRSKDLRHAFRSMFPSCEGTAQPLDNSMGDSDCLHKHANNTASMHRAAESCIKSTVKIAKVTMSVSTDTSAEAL", "experiment": "[3H]WIN55212-2 competition binding in rat brain membrane homogenate", "conditions": "for displace [3H]WIN55212-2: rat brain membrane homogenate", "description": "(§1) Wistar rats were locally bred and handled according to the European Communities Council Directives (86/609/ECC) and the Hungarian Act for the Protection of Animals in Research (XXVlll.tv. Section 32). Crude membrane fractions were prepared from the brain without cerebellum. Brains were quickly removed from the euthanized rats and directly put in ice-cold 50 mM Tris-HCl buffer (pH 7.4). The collected tissue was then homogenized in 30 volumes (v/w) of ice-cold buffer with a Braun Teflon-glass homogenizer at the highest rpm. The homogenate was centrifuged at 20,000 g for 25 min and the resulting pellet was suspended in the same volume of cold buffer followed by incubation at 37°C for 30 min to remove endogenous ligands. Centrifugation was then repeated. The final pellets were taken up in five volumes of 50 mM Tris-HCl (pH 7.4) buffer containing 0.32 M sucrose and stored at -80°C. Prior to the experiment, aliquots were thawed and centrifuged at 20,000 g for 25 min and the were resuspended in 50 mM Tris-HCl (pH 7.4), homogenized with a Dounce in followed by the determination of the protein concentration by the method of Bradford.\nBinding experiments were performed at 30 °C for 1 h in 50 mM Tris-HCl buffer pH 7.4 containing 2.5 mM EGTA, 5 mM MgCl2 and 0.5 mg/mL fatty acid free BSA in plastic tubes in a total assay volume of 1 mL that contained 0.3-0.5 mg/mL membrane protein.\nNon-specific binding was determined in the presence of 10 µM WIN 55212-2. The incubation was terminated by diluting the samples with ice-cold wash buffer (50 mM Tris-HCl, 2.5 mM EGTA, 5 mM MgCl2, 0.5% fatty acid free BSA, pH 7.4), followed by repeated washing and rapid filtration through Whatman GF/B glass fiber filters (Whatman Ltd, Maidstone, England) presoaked with 0.1% polyethyleneimine (30 min before the filtration). Filtration was performed with a 24-well Brandel Cell Harvester (Gaithersburg, MD, USA). Filters were air-dried and immersed into Ultima Gold MV scintillation cocktail and then radioactivity was measured with a TRI-CARB 2100TR liquid scintillation analyzer (Packard).\n(§2) Results are expressed as means ± S.E.M. of at least three independent experiments each performed in duplicate. In competition binding studies, the inhibitory constants (Ki) were calculated from the inflection points of the displacement curves using non-linear least-square curve fitting and the Cheng- Prusoff equation. All data and curves were analyzed by GraphPad Prism 5.0 (San Diego, CA, USA). In [^35S]GTPγS binding studies, data were expressed as the percentage stimulation of the specific [^35S]GTPγS binding over the basal activity and are given as means ± S.E.M. Each experiment was performed in triplicate and analyzed with sigmoid dose-response curve fitting to obtain potency (EC50) and efficacy (Emax) values. Statistical comparison was done by analysis of variance (one-way ANOVA) followed by the Bonferroni multiple comparison test of GraphPad Prism 5.0 (San Diego, CA, USA), P< 0.05 was chosen to indicate significant differences."}, "[1]": {"molecular_target": "CB receptor-associated G-proteins", "experiment": "Ligand stimulated [35S]GTPγS binding assay in rat brain membrane homogenate", "assay_type": "biochemical", "conditions": "for EC50: [35S]GTPγS binding; for EC50 / Emax (%) ±SEM: rat brain membranes; for Emax (%) ±SEM: specific [35S]GTPγS binding, basal set as 100%; for G-protein stimulation (functional character): rat brain membrane homogenate", "description": "as §1\n(§3) Rat brain membranes (30 µg protein/tube) prepared as described above, were incubated with 0.05 nM [^35S]GTPγS (PerkinElmer) and 10^-10-10^-5 M unlabeled ligands in the presence of 30 µM GDP, 100 mM NaCl, 3 mM MgCl2 and 1 mM EGTA in 50 mM Tris-HCl buffer (pH 7.4) for 60 min at 30°C. Basal [^35S]GTPγS binding was measured in the absence of ligands and set as 100%. Nonspecific binding was determined by the addition of 10 µM unlabeled GTPγS and subtracted from total binding. Incubation, filtration and radioactivity measurement of the samples were carried out as described above.\nas §2"}, "CB1 receptor": {"molecular_target": "T2, CB1 receptor (Rattus norvegicus, UniProt P20272)", "T2 construct": "Crude membrane fractions were prepared from the brain without cerebellum; from tissue; host or cells: Wistar rat brain without cerebellum, crude membrane fraction", "T2 sequence (P20272 whole entry)": "as above", "experiment": "CB1/CB2 receptor selectivity by [35S]GTPγS binding assay with rimonabant or AM630", "assay_type": "biochemical", "conditions": "compound 10 µM; rimonabant 10 µM (CB1) vs AM630 10 µM (CB2)", "description": "Figures represent the specific binding of the radioligand in percentage in the presence of increasing concentrations (10^-10-10^-5 M) of the indicated ligands. \"Total\" on the x-axis indicates the total specific binding of the radioligand, which is measured in the absence of the unlabeled compounds. […] Figures represent relative specific binding of [^35S]GTPγS in the presence of increasing concentrations (10^-11-10^-5 M) of the indicated compounds. […] The specific binding of [^35S]GTPγS is represented in percentage in the presence or absence of 10 µM rimonabant (CB1 antagonist/inverse agonist) or AM630 (CB2 antagonist/inverse agonist). Data are expressed as percentage of mean specific binding ± S.E.M. (n≥ 3).\nas §3\nIn the next step the compounds were evaluated for CB1/CB2 receptor selectivity by [^35S]GTPγS binding assays. The G-protein stimulatory effect of compounds LONI 1-LONI 9 (10 µM) was reduced by the CB1 receptor antagonist/inverse agonist rimonabant (10 µM) and by the CB2 receptor antagonist/inverse agonist AM630 (10 µM), and a 3-6-fold selectivity for CB1 receptor was observed."}}, "note": "Read-outs that look alike come from different tables or passages of the source.", "data": [{"smiles": "CCCCCn1cc(C(=O)c2cccc3ccccc23)c2ccccc21", "note": "[JWH-018, reference compound]", "values": [{"measurement": "Ki", "setting": "CB receptors; 1.5 nM [3H]WIN55212-2, rat brain membranes, mean of three independent measurements (S.E.M. 5-12%), read-out: Ki (nM)*", "result": 3.5, "unit": "nM"}, {"measurement": "EC50", "setting": "[1]; read-out: EC50", "result": 16, "unit": "nM"}, {"measurement": "Emax (%) ±SEM", "setting": "[1]", "result": "163 ± 5.2", "unit": "%"}]}, {"smiles": "CC(C)(C)[C@H](NC(=O)c1nn(Cc2ccc(Cl)cc2Cl)c2ccccc12)C(=O)O", "note": "[LONI 1, (S)-2-(1-(2,4-dichlorobenzyl)-1H-indazole-3-carboxamido)-3,3-dimethylbutanoic acid]", "values": [{"measurement": "Ki", "setting": "CB receptors", "result": 0.08, "unit": "nM"}, {"measurement": "EC50", "setting": "[1]; read-out: EC50", "result": 2800, "unit": "nM"}, {"measurement": "EC50", "setting": "[1]; read-out: potency", "result": "1800 to 3200", "unit": "nM"}, {"measurement": "G-protein stimulation (functional character)", "setting": "[1]", "result": "weak inverse agonist activity"}, {"measurement": "Emax (%) ±SEM", "setting": "[1]", "result": "84 ± 6.6", "unit": "%"}]}, {"smiles": "COC(=O)[C@@H](NC(=O)c1nn(Cc2ccc(Cl)cc2Cl)c2ccccc12)C(C)(C)C", "note": "[LONI 2, (S)-methyl 2-(1-(2,4-dichlorobenzyl)-1H-indazole-3-carboxamido)-3,3-dimethylbutanoate]", "values": [{"measurement": "Ki", "setting": "CB receptors", "result": 3.1, "unit": "nM"}, {"measurement": "EC50", "setting": "[1]; read-out: EC50", "result": 8.4, "unit": "nM"}, {"measurement": "Emax (%) ±SEM", "setting": "[1]", "result": "143 ±5.7", "unit": "%"}]}, {"smiles": "CC(C)(C)[C@H](NC(=O)c1nn(Cc2ccc(Cl)cc2Cl)c2ccccc12)C(N)=O", "note": "[LONI 3, (S)-N-(1-amino-3,3-dimethyl-1-oxobutan-2-yl)-1-(2,4-dichlorobenzyl)-1H-indazole-3 carboxamide]", "values": [{"measurement": "Ki", "setting": "CB receptors", "result": 17, "unit": "nM"}, {"measurement": "EC50", "setting": "[1]; read-out: EC50", "result": 126, "unit": "nM"}, {"measurement": "G-protein stimulation (functional character)", "setting": "[1]", "result": "partial agonists"}, {"measurement": "Emax (%) ±SEM", "setting": "[1]", "result": "139 ± 4.5", "unit": "%"}, {"measurement": "selectivity for CB1 receptor", "setting": "CB1 receptor", "result": 6, "unit": "fold"}]}, {"smiles": "CC(C)[C@H](NC(=O)c1nn(Cc2ccc(Cl)cc2Cl)c2ccccc12)C(=O)O", "note": "[LONI 4, (S)-2-(1-(2,4-dichlorobenzyl)-1H-indazole-3-carboxamido)-3-methylbutanoic aci]", "values": [{"measurement": "Ki", "setting": "CB receptors", "result": 2.6, "unit": "nM"}, {"measurement": "EC50", "setting": "[1]; read-out: EC50", "result": 3290, "unit": "nM"}, {"measurement": "EC50", "setting": "[1]; read-out: potency", "result": "1800 to 3200", "unit": "nM"}, {"measurement": "G-protein stimulation (functional character)", "setting": "[1]", "result": "weak inverse agonist activity"}, {"measurement": "Emax (%) ±SEM", "setting": "[1]", "result": "82 ± 10.6", "unit": "%"}, {"measurement": "selectivity for CB1 receptor", "setting": "CB1 receptor", "result": 3, "unit": "fold"}]}, {"smiles": "COC(=O)[C@@H](NC(=O)c1nn(Cc2ccc(Cl)cc2Cl)c2ccccc12)C(C)C", "note": "[LONI 5, (S)-methyl 2-(1-(2,4-dichlorobenzyl)-1H-indazole-3-carboxamido)-3-methylbutanoate]", "values": [{"measurement": "Ki", "setting": "CB receptors", "result": 1.8, "unit": "nM"}, {"measurement": "Emax (%) ±SEM", "setting": "[1]", "result": "140 ± 3.7", "unit": "%"}]}, {"smiles": "CC(C)[C@H](NC(=O)c1nn(Cc2ccc(Cl)cc2Cl)c2ccccc12)C(N)=O", "note": "[LONI 6, (S)-N-(1-amino-3-methyl-1-oxobutan-2-yl)-1-(2,4-dichlorobenzyl)-1H-indazole-3-carboxamide]", "values": [{"measurement": "Ki", "setting": "CB receptors", "result": 17, "unit": "nM"}, {"measurement": "G-protein stimulation (functional character)", "setting": "[1]", "result": "partial agonists"}, {"measurement": "Emax (%) ±SEM", "setting": "[1]", "result": "135 ± 4.9", "unit": "%"}]}, {"smiles": "CC(C)C[C@H](NC(=O)c1nn(Cc2ccc(Cl)cc2Cl)c2ccccc12)C(=O)O", "note": "[LONI 7, (S)-2-(1-(2,4-dichlorobenzyl)-1H-indazole-3-carboxamido)-4-methylpentanoic acid]", "values": [{"measurement": "Ki", "setting": "CB receptors", "result": 43, "unit": "nM"}, {"measurement": "EC50", "setting": "[1]; read-out: EC50", "result": 1870, "unit": "nM"}, {"measurement": "EC50", "setting": "[1]; read-out: potency", "result": "1800 to 3200", "unit": "nM"}, {"measurement": "G-protein stimulation (functional character)", "setting": "[1]", "result": "weak inverse agonist activity"}, {"measurement": "Emax (%) ±SEM", "setting": "[1]", "result": "86 ± 9.3", "unit": "%"}]}, {"smiles": "COC(=O)[C@H](CC(C)C)NC(=O)c1nn(Cc2ccc(Cl)cc2Cl)c2ccccc12", "note": "[LONI 8, (S)-methyl 2-(1-(2,4-dichlorobenzyl)-1H-indazole-3-carboxamido)-4-methylpentanoate]", "values": [{"measurement": "Ki", "setting": "CB receptors", "result": 63, "unit": "nM"}, {"measurement": "Emax (%) ±SEM", "setting": "[1]", "result": "122 ± 4.6", "unit": "%"}]}, {"smiles": "CC(C)C[C@H](NC(=O)c1nn(Cc2ccc(Cl)cc2Cl)c2ccccc12)C(N)=O", "note": "[LONI 9, (S)-N-(1-amino-4-methyl-1-oxopentan-2-yl)-1-(2,4-dichlorobenzyl)-1H-indazole-3-carboxamide]", "values": [{"measurement": "Ki", "setting": "CB receptors", "result": 88, "unit": "nM"}, {"measurement": "G-protein stimulation (functional character)", "setting": "[1]", "result": "partial agonists"}, {"measurement": "Emax (%) ±SEM", "setting": "[1]", "result": "120 ± 5.9", "unit": "%"}, {"measurement": "selectivity for CB1 receptor", "setting": "CB1 receptor", "result": 6, "unit": "fold"}]}, {"smiles": "O=C(O)c1nn(Cc2ccc(Cl)cc2Cl)c2ccccc12", "note": "[LONI A, Lonidamine, reference compound]", "values": [{"measurement": "displace [3H]WIN55212-2", "setting": "CB receptors", "result": "neither LONI A nor its derivatives LONI B and LONI C could displace [^3H]WIN55212-2"}, {"measurement": "G-protein stimulation (functional character)", "setting": "[1]", "result": "didn't show G-protein stimulation"}]}, {"smiles": "NC(=O)c1nn(Cc2ccc(Cl)cc2Cl)c2ccccc12", "note": "[LONI B, reference compound]", "values": [{"measurement": "displace [3H]WIN55212-2", "setting": "CB receptors", "result": "neither LONI A nor its derivatives LONI B and LONI C could displace [^3H]WIN55212-2"}, {"measurement": "EC50", "setting": "[1]; read-out: EC50", "result": 2780, "unit": "nM"}, {"measurement": "G-protein stimulation (functional character)", "setting": "[1]", "result": "weak inverse agonist"}, {"measurement": "Emax (%) ±SEM", "setting": "[1]", "result": "70 ± 8.7", "unit": "%"}]}, {"smiles": "COC(=O)c1nn(Cc2ccc(Cl)cc2Cl)c2ccccc12", "note": "[LONI C, reference compound]", "values": [{"measurement": "displace [3H]WIN55212-2", "setting": "CB receptors", "result": "neither LONI A nor its derivatives LONI B and LONI C could displace [^3H]WIN55212-2"}, {"measurement": "EC50", "setting": "[1]; read-out: EC50", "result": 3160, "unit": "nM"}, {"measurement": "G-protein stimulation (functional character)", "setting": "[1]", "result": "weak inverse agonist"}, {"measurement": "Emax (%) ±SEM", "setting": "[1]", "result": "69 ± 2.6", "unit": "%"}]}]}
